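Briefly, cells in 96-well plates were exposed to five compound concentrations for 48 h, and endpoints were estimated by linear interpolation. GI50 is the concentration that inhibits growth by half.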 Calls of active or inactive are those of the source. No stated cut-off is given here; in the data, active = GI50 up to about 1.1 µM and inactive = higher. Non-standard residues stand in square brackets, D forms with d. Residues, ends and D or L forms follow the SMILES beside them. ξ: configuration not given here. *: point of attachment. NMeF = CN[C@@H](Cc1ccccc1)C(=O)O; NMeN = CN[C@@H](CC(N)=O)C(=O)O; NMeV = CN[C@H](C(=O)O)C(C)C; ξNMeV = CNC(C(=O)O)C(C)C; Boc = CC(C)(C)OC(=O)*; ξNMeA = CNC(C)C(=O)O; ξV = CC(C)C(N)C(=O)O
What was measured:
Test in all cases: NCI anticancer screen, dose series, 48 h
LXFL 529 = test system: LXFL 529
XF498 = test system: XF498
SNB-78 = test system: SNB-78
DMS-114 = test system: DMS-114
DLD-1 = test system: DLD-1
DMS-273 = test system: DMS-273
HOP-18 = test system: HOP-18
M19-MEL = test system: M19-MEL
RXF 631 = test system: RXF 631

Measured: GI50

CC(=O)Nc1ccc(/C=N\N2C(=O)c3ccccc3C2=O)cc1
inactive: LXFL 529 > 100 µM | XF498 > 100 µM | SNB-78 > 100 µM | DMS-114 > 100 µM | DLD-1 > 100 µM | DMS-273 > 100 µM | HOP-18 > 100 µM | M19-MEL > 100 µM

O=C(O)C1CCc2nnc(-c3ccccc3)n21 (configuration not stated)
inactive: LXFL 529 > 100 µM | SNB-78 > 100 µM | DMS-114 > 100 µM | DLD-1 > 100 µM | RXF 631 > 100 µM | DMS-273 > 100 µM | HOP-18 > 100 µM | M19-MEL > 100 µM

C[C@]12CCc3nonc3C1CC[C@@H]1C2CC[C@]2(C)C(=O)/C(=N\O)CC12 (some centres not stated)
inactive: LXFL 529 77.4 µM | XF498 > 100 µM | SNB-78 > 100 µM | DMS-114 > 100 µM | DLD-1 > 100 µM | RXF 631 > 100 µM | DMS-273 > 100 µM | HOP-18 > 100 µM | M19-MEL > 100 µM

O=C1c2ccccc2C(=O)N1CCN(CCN1C(=O)c2ccccc2C1=O)Cc1ccccc1
inactive: LXFL 529 > 100 µM | XF498 > 100 µM | SNB-78 > 100 µM | DMS-114 > 100 µM | DLD-1 > 100 µM | DMS-273 > 100 µM | M19-MEL > 100 µM

Cc1cccc(NC(=O)/C(=N\NC(C)(C)C)C2NC(=S)NC2=O)c1C (configuration not stated)
inactive: LXFL 529 > 100 µM | SNB-78 > 100 µM | DLD-1 > 100 µM | RXF 631 > 100 µM | M19-MEL > 100 µM

C=C(/C=C/C=C(\CO)CCC=C(C)C)[C@H]1CCC2([C@H](CCCO)/C(=C(/C)C=O)CC[C@]2(C)O)[C@H]1O (some centres not stated)
inactive: LXFL 529 > 100 µM | XF498 > 100 µM | SNB-78 > 100 µM | DMS-114 > 100 µM | DLD-1 > 100 µM | DMS-273 > 100 µM | HOP-18 40.9 µM | M19-MEL > 100 µM

CC1=C(O)C(=O)C2C(=O)C1C(C)C2c1ccccc1 (configuration not stated)
inactive: LXFL 529 > 100 µM | XF498 > 100 µM | SNB-78 > 100 µM | DLD-1 > 100 µM | DMS-273 > 100 µM | M19-MEL > 100 µM

COc1ccccc1-n1c(NN)nc2ccc(Br)cc2c1=O
inactive: LXFL 529 24.3 µM | XF498 28.5 µM | SNB-78 47.6 µM | DMS-114 33.6 µM | DLD-1 34.8 µM | RXF 631 45.3 µM | DMS-273 35.1 µM | HOP-18 5.18 µM | M19-MEL 42.5 µM

C[C@]12CCC(=O)C=C1CC[C@@H]1C2CC[C@]2(C)c3nn(-c4ccccc4)nc3CC12 (some centres not stated)
inactive: LXFL 529 > 100 µM | XF498 > 100 µM | SNB-78 > 100 µM | DMS-114 > 100 µM | DLD-1 > 100 µM | DMS-273 > 100 µM | M19-MEL > 100 µM

O=S(=O)(Sc1ccc(Cl)cc1)c1ccc(Cl)cc1
inactive: LXFL 529 16 µM | XF498 20.2 µM | SNB-78 24.2 µM | DMS-114 15.1 µM | DLD-1 16.7 µM | DMS-273 15.4 µM | M19-MEL 17.9 µM

COc1ccc2ccccc2c1C1OC(=O)c2ccccc21 (configuration not stated)
inactive: SNB-78 > 100 µM | DMS-114 53.3 µM | DLD-1 > 100 µM | RXF 631 > 100 µM | DMS-273 86.9 µM | HOP-18 > 100 µM | M19-MEL > 100 µM

Cc1c(NC(=S)NC(=O)c2ccc([N+](=O)[O-])cc2)c(=O)n(-c2ccccc2)n1C
inactive: LXFL 529 > 100 µM | SNB-78 > 100 µM | DMS-114 > 100 µM | DLD-1 > 100 µM | DMS-273 > 100 µM | HOP-18 > 100 µM | M19-MEL > 100 µM

Cc1nnc2n1N=C(c1ccccc1)C(c1ccccc1)S2 (configuration not stated)
inactive: LXFL 529 29.4 µM | XF498 > 100 µM | SNB-78 55.5 µM | DMS-114 25.5 µM | DLD-1 55.3 µM | DMS-273 22.3 µM | HOP-18 60.7 µM | M19-MEL 43.8 µM

O=C1Nc2ccc([N+](=O)[O-])cc2/C1=N/Nc1ccc([N+](=O)[O-])cc1
inactive: LXFL 529 12.4 µM | XF498 16.7 µM | DMS-114 19.9 µM | DLD-1 17.8 µM | RXF 631 24.7 µM | DMS-273 10.7 µM | M19-MEL 16.1 µM

CCc1cccc(CC)c1NC(=O)C1=C(C)NC(C)=C(C(=O)Nc2c(CC)cccc2CC)C1c1ccc([N+](=O)[O-])cc1
inactive: LXFL 529 16.8 µM | XF498 18.4 µM | DMS-114 15.4 µM | DLD-1 21.4 µM | M19-MEL 21.3 µM

CC1(C)CC23C(=O)N(c4ccccc4)C(Nc4ccccc4)=NC2=CC(C#N)=C(C#N)C3O1 (configuration not stated)
inactive: LXFL 529 > 100 µM | XF498 > 100 µM | SNB-78 > 100 µM | DMS-114 42.5 µM | DLD-1 56.2 µM | RXF 631 > 100 µM | M19-MEL 94.6 µM

Cc1ccccc1NC(=O)C(=O)CC(=O)c1c(C)[n+]([O-])c2ccccc2[n+]1[O-]
inactive: LXFL 529 > 100 µM | SNB-78 > 100 µM | DMS-114 > 100 µM | DLD-1 > 100 µM | DMS-273 > 100 µM | HOP-18 > 100 µM | M19-MEL > 100 µM

Nc1nc2c(-c3ccc([N+](=O)[O-])cc3)nnn2c2ccccc12
inactive: LXFL 529 > 100 µM | XF498 78.5 µM | SNB-78 81.1 µM | DLD-1 > 100 µM | DMS-273 > 100 µM | HOP-18 > 100 µM | M19-MEL > 100 µM

CCCCOC(=O)C1C2CCC(O2)C1C(=O)OCCCC (configuration not stated)
inactive: XF498 > 100 µM | SNB-78 > 100 µM | DMS-114 > 39.4 µM | DLD-1 > 53.7 µM | DMS-273 > 100 µM | HOP-18 > 100 µM | M19-MEL > 61.2 µM

CCOc1ccc(/N=C/c2ccc3ccccc3n2)cc1
inactive: LXFL 529 > 100 µM | XF498 > 100 µM | SNB-78 > 100 µM | DLD-1 > 100 µM | RXF 631 > 100 µM | DMS-273 > 100 µM | HOP-18 > 100 µM | M19-MEL > 100 µM

COC(=O)c1[nH]c(=S)[nH]c(=O)c1-c1ccc(Cl)cc1
inactive: LXFL 529 > 50 µM | XF498 > 50 µM | SNB-78 > 50 µM | DMS-114 > 50 µM | DLD-1 > 50 µM | RXF 631 > 50 µM | DMS-273 > 50 µM | M19-MEL > 50 µM

O=S(O)CCCCSSCCCCSSCCCCS(=O)O
inactive: LXFL 529 11.1 µM | XF498 6.41 µM | SNB-78 15.7 µM | DMS-114 25.5 µM | DLD-1 86.1 µM | RXF 631 33.7 µM | DMS-273 42.6 µM | HOP-18 70.1 µM | M19-MEL 5.53 µM

CCN1CC2(C)CC[C@@H](OC)C34[C@@H]2[C@H](OC(C)=O)C2(OCO[C@@]25C[C@H](OC)C2C[C@]3(O)[C@@H]5[C@H]2O)[C@H]14
inactive: LXFL 529 > 100 µM | SNB-78 > 100 µM | DMS-114 > 100 µM | DLD-1 > 100 µM | M19-MEL > 100 µM

COC(=O)C(C)N(C)C(=O)[C@H](CC(N)=O)N(C)C(=O)[C@@H]1CCCN1C(=O)[C@H](C(C)C)N(C)C(=O)C(C(C)C)N(C)C(=O)[C@H](Cc1ccccc1)N(C)C(=O)C(NC(=O)OC(C)(C)C)C(C)C (some centres not stated) (Boc-[ξV][NMeF][ξNMeV][NMeV]P[NMeN][ξNMeA]-OMe)
inactive: LXFL 529 3.13 µM | XF498 15.4 µM | SNB-78 17.9 µM | DMS-114 4.65 µM | DLD-1 17.8 µM | DMS-273 15.1 µM

From ChEMBL document CHEMBL1201862, “PubChem BioAssay data set” (2004)
